This note sets out measurements from PMC6934184, “Selective DNA-PKcs inhibition extends the therapeutic index of localized radiotherapy and chemotherapy” (The Journal of Clinical Investigation, 2019).

SMILES strings stand for the structures.

The target of the experiment is T1, MAP3K9 (MLK1) (Homo sapiens, UniProt P80192).
T1 construct: purchased Thermo Fisher Scientific (Life Technologies) SelectScreen
Description: SelectScreen Z'LYTE. Type of experiment: biochemical. The method in brief:
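NU5455 was profiled across the SelectScreen Broad panel of kinase activity and binding assays. Z'LYTE reactions such as CSF1R ran at apparent Km ATP, while the Adapta CAMK1 assay used ATP listed as 10. Values are given as percent.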

T1 sequence (P80192 whole entry): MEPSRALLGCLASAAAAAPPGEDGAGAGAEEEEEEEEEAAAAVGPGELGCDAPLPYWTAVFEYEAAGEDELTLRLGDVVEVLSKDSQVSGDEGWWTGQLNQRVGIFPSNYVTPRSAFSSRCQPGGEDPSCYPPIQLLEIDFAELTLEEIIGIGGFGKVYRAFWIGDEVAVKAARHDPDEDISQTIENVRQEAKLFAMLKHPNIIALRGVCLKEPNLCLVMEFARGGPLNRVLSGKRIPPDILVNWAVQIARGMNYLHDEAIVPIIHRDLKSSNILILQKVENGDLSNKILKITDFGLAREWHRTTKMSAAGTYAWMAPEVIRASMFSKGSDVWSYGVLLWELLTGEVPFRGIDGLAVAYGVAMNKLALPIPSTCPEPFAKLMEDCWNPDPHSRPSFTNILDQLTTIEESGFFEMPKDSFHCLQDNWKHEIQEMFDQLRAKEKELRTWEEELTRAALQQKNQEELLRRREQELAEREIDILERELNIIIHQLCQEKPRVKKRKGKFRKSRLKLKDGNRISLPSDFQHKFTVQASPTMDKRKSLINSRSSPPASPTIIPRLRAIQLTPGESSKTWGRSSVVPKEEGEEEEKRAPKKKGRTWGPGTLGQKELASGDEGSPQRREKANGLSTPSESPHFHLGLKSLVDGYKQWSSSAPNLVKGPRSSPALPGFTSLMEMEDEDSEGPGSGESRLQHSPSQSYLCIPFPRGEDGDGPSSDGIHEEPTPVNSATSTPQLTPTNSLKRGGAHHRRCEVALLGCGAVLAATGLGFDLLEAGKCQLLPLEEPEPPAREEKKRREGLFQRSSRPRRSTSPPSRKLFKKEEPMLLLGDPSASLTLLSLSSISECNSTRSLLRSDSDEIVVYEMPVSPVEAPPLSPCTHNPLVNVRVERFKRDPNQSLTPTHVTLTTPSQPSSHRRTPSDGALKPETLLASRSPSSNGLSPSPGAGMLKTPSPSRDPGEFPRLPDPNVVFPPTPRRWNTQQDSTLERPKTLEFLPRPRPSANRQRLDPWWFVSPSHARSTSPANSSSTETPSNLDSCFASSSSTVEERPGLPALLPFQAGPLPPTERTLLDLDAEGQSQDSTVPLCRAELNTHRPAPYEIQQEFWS

With `CN(C(=O)CN1CCOCC1)c1ccc2sc3c(-c4cccc5c(=O)cc(N6CC7CCC(C6)O7)oc45)cccc3c2c1` [NU5455], the inhibition at 1 µM is -0.5%.

For orientation: inhibition means the drop in the measured response relative to a control, in per cent.
